Results reported in ChEMBL document CHEMBL4325848, “Quinoline and quinolone dimers and their biological activities: An overview” (Eur J Med Chem, 2019).
Values after ≈ are worked out from the molar mass of the structure shown. One block for each compound: values may come before it.

Assays:
[1] = system: Plasmodium falciparum; experiment: Antiprotozoal activity against chloroquine-sensitive Plasmodium falciparum D6; type: functional, organism-based
[2] = system: Plasmodium falciparum; experiment: Antiprotozoal activity against chloroquine-resistant Plasmodium falciparum W2; type: functional, organism-based
[3] = system: Plasmodium falciparum; experiment: Antimalarial activity against chloroquine-resistant Plasmodium falciparum FcB1; type: functional, organism-based; conditions: FcB1/Columbia
[4] = Cytotoxicity against human MRC5 cells; type: cell-based
[5] = Selectivity index, ratio of CC50 for human MRC5 cells to IC50 for chloroquine-resistant Plasmodium falciparum FcB1; type: toxicity; conditions: read-out: Ratio CC50/IC50
[6] = target: Histone-lysine N-methyltransferase, H3 lysine-79 specific (Homo sapiens, UniProt Q8TEK3); experiment: Inhibition of DOT1L (unknown origin)
[7] = system: Staphylococcus aureus; experiment: Antibacterial activity against Staphylococcus aureus; type: functional
[8] = system: Enterococcus; experiment: Antibacterial activity against Enterococcus; type: functional
[9] = system: Escherichia coli; experiment: Antibacterial activity against Escherichia coli; type: functional
[10] = system: Proteus; experiment: Antibacterial activity against Proteus; type: functional
[11] = system: Shigella; experiment: Antibacterial activity against Shigella; type: functional
[12] = system: Klebsiella pneumoniae; experiment: Antibacterial activity against Klebsiella pneumoniae; type: functional
[13] = system: Plasmodium falciparum; experiment: Antimalarial activity against chloroquine-sensitive Plasmodium falciparum 3D7; type: functional, organism-based
[14] = system: Plasmodium falciparum; experiment: Antimalarial activity against chloroquine-resistant Plasmodium falciparum K1; type: functional, organism-based
[15] = system: HL-60; experiment: Antiproliferative activity against human HL60 cells; type: functional, cell-based
[16] = system: Plasmodium vinckei; experiment: Antimalarial activity against Plasmodium vinckei infected in ip dosed mouse; type: functional
[17] = system: MV4-11; experiment: Antiproliferative activity against human MV4-11 cells; type: functional, cell-based
[18] = system: Kasumi 1; experiment: Antiproliferative activity against human Kasumi-1 cells; type: functional, cell-based
[19] = system: Plasmodium berghei; experiment: Antimalarial activity against Plasmodium berghei N/13 infected in MF1 mouse; type: functional; conditions: read-out: ID50 (the source's name)
[20] = system: Plasmodium falciparum; experiment: Antimalarial activity against chloroquine-sensitive Plasmodium falciparum D10; type: functional, organism-based
[21] = system: Plasmodium falciparum; experiment: Antimalarial activity against pfmdr1-overexpressing chloroquine-resistant Plasmodium falciparum K1mef; type: functional, organism-based; conditions: K1 mef
[22] = system: Plasmodium falciparum; experiment: Potency index, ratio of chloroquine IC50 to compound IC50 for antimalarial activity against chloroquine-resistant Plasmodium falciparum K1; type: functional
[23] = system: MDA-MB-468; experiment: Antiproliferative activity against human MDA-MB-468 cells; type: functional
[24] = system: MCF7; experiment: Antiproliferative activity against human MCF7 cells; type: functional
[25] = system: Escherichia coli; experiment: Antibacterial activity against Escherichia coli ATCC 8739 assessed as zone of inhibition at 50 ug/disc; type: functional; conditions: read-out: DIZ
[26] = system: Staphylococcus aureus; experiment: Antibacterial activity against Staphylococcus aureus ATCC 6538 assessed as zone of inhibition at 100 ug/disc; type: functional; conditions: read-out: DIZ
[27] = system: Staphylococcus aureus; experiment: Antibacterial activity against Staphylococcus aureus 1199; type: functional
[28] = system: Staphylococcus aureus; experiment: Antibacterial activity against Staphylococcus aureus 1199-3; type: functional
[29] = system: Staphylococcus aureus; experiment: Antibacterial activity against Staphylococcus aureus 1199B; type: functional
[30] = system: Staphylococcus aureus; experiment: Antibacterial activity against glycopeptide-intermediate Staphylococcus aureus; type: functional

Chain of Histone-lysine N-methyltransferase, H3 lysine-79 specific (Q8TEK3 whole entry): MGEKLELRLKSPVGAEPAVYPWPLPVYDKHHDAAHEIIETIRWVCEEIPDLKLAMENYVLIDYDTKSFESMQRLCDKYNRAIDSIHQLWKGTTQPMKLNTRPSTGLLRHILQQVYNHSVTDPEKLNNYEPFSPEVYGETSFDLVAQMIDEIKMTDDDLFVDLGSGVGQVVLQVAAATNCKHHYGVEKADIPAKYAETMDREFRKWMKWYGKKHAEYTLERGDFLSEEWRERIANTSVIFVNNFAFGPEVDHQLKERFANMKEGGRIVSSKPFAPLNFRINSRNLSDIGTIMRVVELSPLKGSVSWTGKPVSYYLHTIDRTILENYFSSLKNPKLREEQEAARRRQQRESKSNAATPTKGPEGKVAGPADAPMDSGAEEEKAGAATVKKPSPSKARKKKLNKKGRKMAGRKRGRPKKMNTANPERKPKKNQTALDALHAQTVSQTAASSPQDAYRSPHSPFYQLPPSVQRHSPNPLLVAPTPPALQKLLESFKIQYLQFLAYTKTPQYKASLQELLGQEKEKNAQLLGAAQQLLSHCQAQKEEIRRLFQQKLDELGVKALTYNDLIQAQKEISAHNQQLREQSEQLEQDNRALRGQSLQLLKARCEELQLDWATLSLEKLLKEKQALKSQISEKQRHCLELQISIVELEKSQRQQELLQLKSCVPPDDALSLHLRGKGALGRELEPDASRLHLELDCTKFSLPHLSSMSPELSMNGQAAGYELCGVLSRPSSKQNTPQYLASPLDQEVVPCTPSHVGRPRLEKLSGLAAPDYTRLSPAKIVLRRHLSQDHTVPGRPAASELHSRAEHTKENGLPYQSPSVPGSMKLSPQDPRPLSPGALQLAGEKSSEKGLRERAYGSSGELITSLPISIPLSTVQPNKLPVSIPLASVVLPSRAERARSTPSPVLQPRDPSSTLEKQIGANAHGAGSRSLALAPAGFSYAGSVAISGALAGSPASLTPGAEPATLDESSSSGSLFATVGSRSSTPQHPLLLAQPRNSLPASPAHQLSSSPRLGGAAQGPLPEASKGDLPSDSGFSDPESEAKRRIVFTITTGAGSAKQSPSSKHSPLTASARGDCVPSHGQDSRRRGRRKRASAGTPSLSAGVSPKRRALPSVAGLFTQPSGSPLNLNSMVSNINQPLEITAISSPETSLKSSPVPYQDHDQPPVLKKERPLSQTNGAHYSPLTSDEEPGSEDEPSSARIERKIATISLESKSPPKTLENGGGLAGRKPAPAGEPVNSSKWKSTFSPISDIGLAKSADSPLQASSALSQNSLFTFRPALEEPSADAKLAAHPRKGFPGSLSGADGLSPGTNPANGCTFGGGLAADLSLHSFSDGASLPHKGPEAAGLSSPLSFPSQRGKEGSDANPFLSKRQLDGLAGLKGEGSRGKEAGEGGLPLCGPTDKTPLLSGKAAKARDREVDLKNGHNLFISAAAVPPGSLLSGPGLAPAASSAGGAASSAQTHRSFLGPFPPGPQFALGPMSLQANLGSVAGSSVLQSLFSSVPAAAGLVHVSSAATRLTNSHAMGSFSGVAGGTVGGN

SMILES: Clc1ccc2c(NCCOCCOCCNc3ccnc4cc(Cl)ccc34)ccnc2c1
IC50 [1]: 1.2 to 89 nM
IC50 [2]: 1.2 to 89 nM

SMILES: Clc1ccc2c(NCCOCCNc3ccnc4cc(Cl)ccc34)ccnc2c1
IC50 [1]: 1.2 to 89 nM
IC50 [2]: 1.2 to 89 nM

SMILES: CN(CCCNc1ccnc2cc(Cl)ccc12)CCCNc1ccnc2cc(Cl)ccc12
IC50 [1]: 1.2 to 89 nM
IC50 [2]: 1.2 to 89 nM

SMILES: Clc1ccc2c(NCCCN3CCN(CCCNCc4ccnc5ccccc45)CC3)ccnc2c1
IC50 [3]: 20.1 nM
CC50 [4]: 16.4 µM
selectivity ratio [5]: 816

IC50 [6]: 1080 nM
SMILES: Cc1cc(N)c2cc(Nc3ccnc(Nc4ccc5nc(C)cc(N)c5c4)n3)ccc2n1

SMILES: Clc1ccc2c(NCCCCCCNCCCCCCNc3ccnc4cc(Cl)ccc34)ccnc2c1
IC50 [1]: 1.2 to 89 nM
IC50 [2]: 1.2 to 89 nM

SMILES: Clc1ccc2c(NCCCOCCOCCOCCCNc3ccnc4cc(Cl)ccc34)ccnc2c1
IC50 [1]: 1.2 to 89 nM
IC50 [2]: 1.2 to 89 nM

SMILES: Clc1ccc2c(NCCCNCCNc3ccnc4cc(Cl)ccc34)ccnc2c1
IC50 [1]: 1.2 to 89 nM
IC50 [2]: 1.2 to 89 nM

MIC [7]: 0.25 to 2 µg/mL (≈ 0.274 to 2.19 µM)
MIC [8]: 0.25 to 2 µg/mL (≈ 0.274 to 2.19 µM)
MIC [9]: 0.25 to 2 µg/mL (≈ 0.274 to 2.19 µM)
MIC [10]: 0.25 to 2 µg/mL (≈ 0.274 to 2.19 µM)
MIC [11]: 0.25 to 2 µg/mL (≈ 0.274 to 2.19 µM)
MIC [12]: 0.25 to 2 µg/mL (≈ 0.274 to 2.19 µM)
SMILES: O=C(O)c1cn(C2CC2)c2cc(N3CCN(c4nc(N5CCN(c6cc7c(cc6F)c(=O)c(C(=O)O)cn7C6CC6)CC5)c(F)c(S(=O)(=O)c5ccccc5)c4F)CC3)c(F)cc2c1=O

SMILES: Clc1ccc2c(NCCCOCCCCOCCCNc3ccnc4cc(Cl)ccc34)ccnc2c1
IC50 [1]: 1.2 to 89 nM
IC50 [2]: 1.2 to 89 nM

SMILES: CCC(C)[C@H](Nc1ccnc2cc(Cl)ccc12)C(=O)NCCNc1ccnc2cc(Cl)ccc12 (stereo not given in full)
IC50 [13]: 24 nM
IC50 [14]: 26 nM

IC50 [6]: 21700 nM
SMILES: COc1cc(C)nc2ccc(Nc3cc(C)nc(Nc4ccc5nc(C)cc(OC)c5c4)n3)cc12

IC50 [6]: 4350 nM
SMILES: Cc1cc(Nc2ccc3nc(C)cc(O)c3c2)nc(Nc2ccc3nc(C)cc(O)c3c2)n1

IC50 [15]: 120 nM
SMILES: C[C@H]1COc2c(N3CCN(C)CC3)c(F)cc3c(=O)c(-c4nn5c(-c6cn(C7CC7)c7cc(N8CCNCC8)c(F)cc7c6=O)nnc5s4)cn1c23

IC50 [15]: 540 nM
SMILES: CN1CCN(c2cc3c(cc2F)c(=O)c(-c2nn4c(-c5cn(C6CC6)c6cc(N7CCNCC7)c(F)cc6c5=O)nnc4s2)cn3C2CC2)CC1

SMILES: c1ccc2c(c1)nc(NCCCN1CCN(CCCNc3nc4ccccc4c4sccc34)CC1)c1ccsc12
ED50 [16]: 30 mg/kg

MIC [7]: 0.25 to 2 µg/mL (≈ 0.323 to 2.58 µM)
MIC [8]: 0.25 to 2 µg/mL (≈ 0.323 to 2.58 µM)
MIC [9]: 0.25 to 2 µg/mL (≈ 0.323 to 2.58 µM)
MIC [10]: 0.25 to 2 µg/mL (≈ 0.323 to 2.58 µM)
MIC [11]: 0.25 to 2 µg/mL (≈ 0.323 to 2.58 µM)
MIC [12]: 0.25 to 2 µg/mL (≈ 0.323 to 2.58 µM)
SMILES: O=C(O)c1cn(C2CC2)c2cc(N3CCN(c4nc(Cl)nc(N5CCN(c6cc7c(cc6F)c(=O)c(C(=O)O)cn7C6CC6)CC5)n4)CC3)c(F)cc2c1=O

IC50 [6]: 1060 nM
IC50 [17]: 30.5 µM
SMILES: Cc1cc(N)c2cc(Nc3cc(Nc4ccc5nc(C)cc(N)c5c4)ncn3)ccc2n1
IC50 [18]: 45.8 µM

SMILES: FC(F)(F)c1ccc2c(N[C@@H]3CCCC[C@H]3Nc3ccnc4cc(C(F)(F)F)ccc34)ccnc2c1
ED50 [19]: 5.9 mg/kg

IC50 [6]: 1500 nM
SMILES: Cc1cc(Nc2ccc3nc(C)cc(N)c3c2)nc(Nc2ccc3nc(C)cc(N)c3c2)n1

SMILES: CCC1C[C@@H]2CC[C@H]1CC2C(O)c1ccnc2c(NC(=O)CCCCC(=O)Nc3cccc4c(C(O)C5C[C@@H]6CC[C@H]5C(CC)C6)ccnc34)cccc12 (stereo not given in full)
IC50 [14]: 20 nM
IC50 [20]: 50 nM
IC50 [21]: 20 nM

SMILES: CCN(CC)CCCC(C)Nc1cc(CCCCCCCCCCCCc2cc(NC(C)CCCN(CC)CC)c3ccccc3n2)nc2ccccc12 (stereo not given)
Ratio IC50 [22]: 31.7

GI50 [23]: 7.35 µM
GI50 [24]: 14.8 µM
SMILES: Clc1ccc2c(NCCNc3ccnc4cc(Cl)ccc34)ccnc2c1

SMILES: Clc1ccc2c(N[C@@H]3CCCC[C@H]3Nc3ccnc4cc(Cl)ccc34)ccnc2c1 (relative stereo)
IC50 [1]: 1 nM
IC50 [2]: 1.4 nM
ED50 [19]: 3 mg/kg

MIC [27]: 0.125 to 16 µg/mL (≈ 0.377 to 48.3 µM)
MIC [28]: 0.125 to 16 µg/mL (≈ 0.377 to 48.3 µM)
MIC [29]: 0.125 to 16 µg/mL (≈ 0.377 to 48.3 µM)
MIC [30]: > 16 µg/mL
SMILES: O=C(O)c1cn(C2CC2)c2cc(N3CCNCC3)c(F)cc2c1=O [CIPROFLOXACIN]
zone of inhibition at 50 µg/disc [25]: 36 mm
zone of inhibition at 100 µg/disc [26]: 38 mm

SMILES: CCn1cc(C(=O)O)c(=O)c2cc(F)c(N3CCNCC3)cc21 [NORFLOXACIN]
MIC [27]: 0.125 to 16 µg/mL (≈ 0.391 to 50.1 µM)
MIC [28]: 0.125 to 16 µg/mL (≈ 0.391 to 50.1 µM)
MIC [29]: 0.125 to 16 µg/mL (≈ 0.391 to 50.1 µM)
MIC [30]: > 16 µg/mL

MIC [27]: 0.125 to 16 µg/mL (≈ 0.412 to 52.7 µM)
MIC [28]: 0.125 to 16 µg/mL (≈ 0.412 to 52.7 µM)
MIC [29]: 0.125 to 16 µg/mL (≈ 0.412 to 52.7 µM)
MIC [30]: > 16 µg/mL
SMILES: CCn1cc(C(=O)O)c(=O)c2cnc(N3CCNCC3)nc21 [PIPEMIDIC ACID]
